Measured values reported in article PMC9855422, “Purification and Properties of Polyphenol Oxidase of Dried Volvariella bombycina” (Biology, 2022).
Values belong to the compound of their own block, whether it stands above or below them.

Columns and labels:
[1] = system: T1, dried V. bombycina PPO (polyphenol oxidase); test: spectrophotometric oxidation at […] nm, Lineweaver-Burk; format: biochemical, Volvariella bombycina
T1 construct: single band about 25 kDa on SDS-PAGE

[2] = system: T1, dried V. bombycina PPO (polyphenol oxidase); test: as above; format: biochemical, Volvariella bombycina; conditions: optimum pH 8.0, 15 °C

Km ([1]; optimum pH 9.0, 20 °C): 3170 µM
SMILES: Cc1ccc(O)c(O)c1 [4-methyl catechol]

Km [2]: 2670 µM
SMILES: Oc1cccc(O)c1O [pyrogallol]

SMILES: Oc1ccccc1O [catechol]
Km ([1]; optimum pH 6.5, 15 °C, 0.1 M phosphate buffer): 1670 µM
